For one assay, the system named is NCI-H226. Briefly: 72H TEAD Proliferation Assay (Cell Titer-Glo 2.0). The assay is classed as cell-based. The conditions noted are these: CTG 2.0, cell line not given. As for the experimental part: The effect of TEAD inhibition on cell proliferation was assayed using Cell Titer Glo (CTG) 2.0 to measure response in mesothelioma cell lines NCI-H226 (ATCC, #CRL-5826) and NCI-H28 (ATCC, #CRL-5820).
The 72H TEAD Proliferation assay utilizes Cell Titer-Glo 2.0 (Promega, #G9243) to measure the proliferation of cells in the presence or absence of compound. Cell Titer-Glo 2.0 determines the amount of viable cells by quantifying ATP (an indication of metabolically active cells). It utilizes the conversion of Luciferin to Oxyluciferin and a luminescent signal with the use of ATP to report the quantity of viable cells in culture. Within cells that are continually growing, ATP is being synthesized to meet their metabolic demands, meanwhile the opposite is true for cells that are dying or slowing down their proliferation and either no longer using ATP or are using less, respectively. The NF2-deficient NCI-H226 has been genetically validated as a cell line that is sensitive to TEAD inhibition. The NF2-wild type NCI-H28 has been genetically validated as a cell line that is not sensitive to TEAD inhibition and grows independently of TEAD activity.
Compounds were screened against the responsive NCI-H226 cell line to assess the compounds' ability to inhibit TEAD and cell growth. Compounds were also screened against the non-responsive NCI-H28 cell line to ascertain whether the inhibition of cell growth was due to inhibition of the target TEAD or whether the inhibition was due to off-target cytotoxicity.
1) Assay ready plates (ARPs) were prepared by Echo acoustic liquid handler. For each compound, duplicate of 10-point half-log dilution series were dispensed in a 384-well microplate (Corning 3571).
5) NCI-H226 or NCI-H28 cells were harvested from culture in Assay Medium 1 and the multidrop Combi reagent dispenser was used to seed cells at 500 cells per 50 ul in each well of the ARPs and one Corning 3571 plate without compounds for Time 0 (TO) readout.
6) The TO plate was incubated for 2 hours at 37° C. with 5% CO2 to allow cells to settle, then the CTG Assay was performed.
7) All ARPs were incubated for 72 hours at 37° C. with 5% CO2, then the CTG Assay was performed for Time 72H (T72) readout.
8) CTG Assay: Bravo liquid handler (Agilent) was used to add 25 ul of CTG 2.0 to all columns of the plate except for Column 24, which was used to subtract out the background. After CTG addition, plates were placed on shaker at 800 RPM for 15 minutes at room temperature and kept in the dark. Luminescence was measured using EnVision multilabel plate reader with ultra-sensitive detection module.
9) Data Analysis: First background luminescence (no CTG wells) was subtracted from luminescence reading of all wells, then TO luminescence was subtracted from T72 luminescence. To compare anti-proliferative effect of compounds, GI50 was obtained by fitting dose response curves with nonlinear regression curve fit.
Background: Cellular ATP, detected with luciferase, serves as a proxy for viable cell number.

The target in assay [1] is TEAD1 protein (YAP Binding Domain) (Homo sapiens, UniProt P28347). Briefly: TEAD1 lipid pocket compound displacement assay (TR-FRET, Cy5-probe). The settings on record: 60 minutes incubation at room temperature; TR-FRET 665 nm/620 nm; read-out: CDA IC50. Summed up:
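His-tagged TEAD1 YAP-binding domain pre-mixed with a Cy5-labelled lipid-pocket probe and Tb-anti-His antibody; compounds incubated with the complex 60 min at room temperature. TR-FRET read at 665/620 nm; IC50 from 4-parameter non-linear fit of probe displacement.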
On the technique in general: Time-resolved FRET reads energy transfer from a long-lived donor to a nearby acceptor.

Some results are limits rather than exact numbers.

TEAD1 protein (YAP Binding Domain), sequence (P28347 209-426 limits assumed): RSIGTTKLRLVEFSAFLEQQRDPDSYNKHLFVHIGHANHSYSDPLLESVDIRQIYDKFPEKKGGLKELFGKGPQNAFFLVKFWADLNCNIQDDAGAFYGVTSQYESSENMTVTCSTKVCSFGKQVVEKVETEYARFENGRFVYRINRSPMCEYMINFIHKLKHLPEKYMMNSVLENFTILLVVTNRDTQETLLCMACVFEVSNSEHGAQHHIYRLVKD

`C=CC(=O)Nc1ccc2c(c1)OC(C)(c1cccc(C(F)(F)F)c1)O2` (stereo not shown) [147*, N-(2-methyl-2-(3-(trifluoromethyl)phenyl)benzo[d][1,3]dioxol-5-yl)acrylamide]: the GI50 in the assay on NCI-H226 (Homo sapiens, NCI-H226, 72 h) lay within 250 to 1000 nM. Besides, the IC50 in assay [1] was at most 250 nM.
`C=CC(=O)Nc1ccc(OCc2cccc(F)c2Cl)c(F)c1` [Compound 83, N-(4-((2-chloro-3-fluorobenzyl)oxy)-3-fluorophenyl)acrylamide] yielded a GI50 with NCI-H226 (Homo sapiens, NCI-H226, 72 h) of 250 to 1000 nM. In addition, in assay [1], the IC50 is at most 250 nM.
`C=CC(=O)Nc1ccc(OCc2ccnc(C(F)(F)F)c2)c(F)c1` [Compound 116, N-(3-fluoro-4-((2-(trifluoromethyl)pyridin-4-yl)methoxy)phenyl)acrylamide] returned a GI50 in the assay with NCI-H226 (Homo sapiens, NCI-H226, 72 h) of 250 to 1000 nM. The IC50 in assay [1] lay within 250 to 500 nM.
As to `C=CC(=O)Nc1cc2nc(CC3CC3C)oc2cc1F` (stereo not shown) [Compound 145, N-(6-fluoro-2-((2-methylcyclopropyl)methyl)benzo[d]oxazol-5-yl)acrylamide], the GI50 with NCI-H226 (Homo sapiens, NCI-H226, 72 h) is at most 250 nM. Further, in assay [1], the IC50 was 250 to 500 nM.
The matching figures for `C=CC(=O)Nc1ccc(Oc2cccc(C)c2)c(F)c1` [Compound 113, N-(3-fluoro-4-(m-tolyloxy)phenyl)acrylamide]: 1000 to 3000 nM and at most 250 nM.
For the compound `C=CC(=O)Nc1ccc(OCC2CCC(F)(F)CC2)c2ccnn12` [Compound 23, N-(4-((4,4-difluorocyclohexyl)methoxy)pyrazolo[1,5-a]pyridin-7-yl)acrylamide], the GI50 in the assay with NCI-H226 (Homo sapiens, NCI-H226, 72 h) is 1000 to 3000 nM. Moreover, the IC50 in assay [1] was at most 250 nM.
On to `C=CC(=O)Nc1ccc(OCc2ccc(F)cc2Cl)c(F)c1` [Compound 84, N-(4-((2-chloro-4-fluorobenzyl)oxy)-3-fluorophenyl)acrylamide], for which the GI50 with NCI-H226 (Homo sapiens, NCI-H226, 72 h) lay within 1000 to 3000 nM. Moreover, the IC50 in assay [1] lay within 500 to 2000 nM.
With `C=CC(=O)Nc1cc2nc(C3CCC(F)(F)CC3)oc2cc1F` [Compound 135, N-(2-(4,4-difluorocyclohexyl)-6-fluorobenzo[d]oxazol-5-yl)acrylamide], in the assay on NCI-H226, the GI50 was at most 250 nM. Further, the IC50 in assay [1] was 500 to 2000 nM.
For the compound `C=CC(=O)Nc1ccc(Oc2ccc(F)cc2)c(F)c1` [Compound 107, N-(3-fluoro-4-(4-fluorophenoxy)phenyl)acrylamide], in the assay with NCI-H226 (Homo sapiens, NCI-H226, 72 h), the GI50 was in the range of 250 to 1000 nM. Moreover, the IC50 in assay [1] was at most 250 nM.
Regarding `C=CC(=O)Nc1ccc(Oc2cccc(C(C)(C)C)c2)c(F)c1` [Compound 110, N-(4-(3-(tert-butyl)phenoxy)-3-fluorophenyl)acrylamide], the concentration for 50% growth inhibition (GI50) in the assay on NCI-H226 (Homo sapiens, NCI-H226, 72 h) lay within 1000 to 3000 nM. In addition, the IC50 in assay [1] lay in the range of 250 to 500 nM.
`C=CC(=O)Nc1ccc(-c2ccc(C(C)(C)C)cc2)c2ncccc12` [Compound 151, N-(8-(4-(tert-butyl)phenyl)quinolin-5-yl)acrylamide] showed a GI50 in the assay on NCI-H226 (Homo sapiens, NCI-H226, 72 h) of at most 250 nM. For the same compound, the IC50 in assay [1] fell in the range of 250 to 500 nM.
The corresponding values for `C=CC(=O)Nc1ccc(OCC2CCCCC2)c(F)c1` [Compound 55, N-(4-(cyclohexylmethoxy)-3-fluorophenyl)acrylamide] are 250 to 1000 nM and at most 250 nM.
Consider `C=CC(=O)Nc1ccc(OCc2csc3ccccc23)c(F)c1` [Compound 60, N-(4-(benzo[b]thiophen-3-ylmethoxy)-3-fluorophenyl)acrylamide], for which the GI50 in the assay on NCI-H226 (Homo sapiens, NCI-H226, 72 h) is over 3000 nM. In addition, the IC50 in assay [1] was in the range of 500 to 2000 nM.
The matching figures for `C=CC(=O)Nc1ccc2oc(CCCC(C)C)nc2c1F` [Compound 141, N-(4-fluoro-2-(4-methylpentyl)benzo[d]oxazol-5-yl)acrylamide]: 250 to 1000 nM and 250 to 500 nM.
The matching figures for `C=CC(=O)Nc1ccc(OCc2cccc(F)c2)c(C(F)(F)F)c1` [Compound 9, N-(4-((3-fluorobenzyl)oxy)-3-(trifluoromethyl)phenyl)acrylamide]: over 3000 nM and at most 250 nM.
The corresponding values for `C=CC(=O)Nc1ccc(OCC2CCC(F)(F)CC2)c2ccncc12` [Compound 19, N-(5-((4,4-difluorocyclohexyl)methoxy)isoquinolin-8-yl)acrylamide] are over 3000 nM and over 2000 nM.
Turning to `C=CC(=O)Nc1cc2nc(CC3CCC(F)(F)CC3)oc2cc1F` [Compound 136, N-(2-((4,4-difluorocyclohexyl)methyl)-6-fluorobenzo[d]oxazol-5-yl)acrylamide], the GI50 with NCI-H226 (Homo sapiens, NCI-H226, 72 h) is 250 to 1000 nM. Moreover, the IC50 in assay [1] fell in the range of 250 to 500 nM.
The matching figures for `C=CC(=O)Nc1ccc(/C=C/c2cccc(F)c2)c(F)c1` [Compound 27, (E)-N-(3-fluoro-4-(3-fluorostyryl)phenyl)acrylamide]: 1000 to 3000 nM and 500 to 2000 nM.
For `C=CC(=O)Nc1ccc(Oc2ccc(C)cc2)c(F)c1` [Compound 114, N-(3-fluoro-4-(p-tolyloxy)phenyl)acrylamide], in the assay on NCI-H226 (Homo sapiens, NCI-H226, 72 h), the GI50 is over 3000 nM. In assay [1], the concentration for half-maximal inhibition (IC50) was at most 250 nM.
The corresponding values for `C=CC(=O)Nc1ccc(OCc2cccc(F)c2)c(F)c1` [Compound 100, N-(3-fluoro-4-((3-fluorobenzyl)oxy)phenyl)acrylamide] are over 3000 nM and 250 to 500 nM.
The corresponding values for `C=CC(=O)Nc1ccc(Oc2ccc(C(C)(C)C)cc2)c(F)c1` [Compound 111, N-(4-(4-(tert-butyl)phenoxy)-3-fluorophenyl)acrylamide] are 250 to 1000 nM and at most 250 nM.
The corresponding values for `C=CC(=O)Nc1ccc(OCC2CCC(F)(F)CC2)c(C#N)c1` [Compound 50, N-(3-cyano-4-((4,4-difluorocyclohexyl)methoxy)phenyl)acrylamide] are at most 250 nM and at most 250 nM.
Take `C=CC(=O)Nc1ccc(OCC2CCOCC2)c(F)c1` [Compound 54, N-(3-fluoro-4-((tetrahydro-2H-pyran-4-yl)methoxy)phenyl)acrylamide]: the GI50 in the assay on NCI-H226 (Homo sapiens, NCI-H226, 72 h) was 1000 to 3000 nM. In assay [1], the IC50 was over 2000 nM.
`C=CC(=O)Nc1ccc(OCc2cccc(F)c2)c(C2CCCCC2)c1` [Compound 3, N-(3-cyclohexyl-4-((3-fluorobenzyl)oxy)phenyl)acrylamide] showed a GI50 with NCI-H226 (Homo sapiens, NCI-H226, 72 h) of over 3000 nM. The IC50 in assay [1] fell in the range of 500 to 2000 nM.
The matching figures for `CN(C)C/C=C/C(=O)Nc1ccc(OCc2cccc(F)c2)c(F)c1` [Compound 125, (E)-4-(dimethylamino)-N-(3-fluoro-4-((3-fluorobenzyl)oxy)phenyl)but-2-enamide]: over 3000 nM and over 2000 nM.
As for `C=CC(=O)Nc1ccc(OCc2cncc(C)c2)c(F)c1` [Compound 71, N-(3-fluoro-4-((5-methylpyridin-3-yl)methoxy)phenyl)acrylamide], the 50% growth inhibitory concentration (GI50) in the assay with NCI-H226 (Homo sapiens, NCI-H226, 72 h) was over 3000 nM. For the same compound, in assay [1], the half-maximal inhibitory concentration (IC50) was over 2000 nM.
For `C=CC(=O)Nc1ccc(CCc2cccc(F)c2)c(F)c1` [Compound 1, N-(3-fluoro-4-(3-fluorophenethyl)phenyl)acrylamide], in the assay on NCI-H226 (Homo sapiens, NCI-H226, 72 h), the GI50 lay within 1000 to 3000 nM. In addition, the IC50 in assay [1] is at most 250 nM.
In the assay on NCI-H226 (Homo sapiens, NCI-H226, 72 h), `C=CC(=O)Nc1ccc(OCC2CCC(F)(F)CC2)c2ccccc12` [Compound 49, N-(4-((4,4-difluorocyclohexyl)methoxy)naphthalen-1-yl)acrylamide] showed a concentration for 50% growth inhibition (GI50) of at most 250 nM. In addition, the IC50 in assay [1] was at most 250 nM.
On to `C=CC(=O)Nc1ccc(C2COc3ccccc3N2)c(F)c1` (stereo not shown) [Compound 121, N-(4-(3,4-dihydro-2H-benzo[b][1,4]oxazin-3-yl)-3-fluorophenyl)acrylamide], for which, in the assay on NCI-H226 (Homo sapiens, NCI-H226, 72 h), the 50% growth inhibitory concentration (GI50) was over 3000 nM. In addition, in assay [1], the half-inhibitory concentration (IC50) fell in the range of 500 to 2000 nM.
The matching figures for `C=CC(=O)Nc1ccc(Oc2ccccc2)c(F)c1` [Compound 112, N-(3-fluoro-4-phenoxyphenyl)acrylamide]: over 3000 nM and 250 to 500 nM.
Take `C=CC(=O)Nc1ccc(OCc2cncc(C(F)(F)F)c2)cc1C#N` [Compound 42, N-(2-cyano-4-((5-(trifluoromethyl)pyridin-3-yl)methoxy)phenyl)acrylamide]: the GI50 with NCI-H226 (Homo sapiens, NCI-H226, 72 h) lay within 250 to 1000 nM. Besides, the IC50 in assay [1] was over 2000 nM.
For `C=CC(=O)Nc1ccc(C2COc3ccccc3O2)c(F)c1` (stereo not shown) [Compound 122, N-(4-(2,3-dihydrobenzo[b][1,4]dioxin-2-yl)-3-fluorophenyl)acrylamide], the GI50 with NCI-H226 (Homo sapiens, NCI-H226, 72 h) is over 3000 nM. Moreover, the IC50 in assay [1] was at most 250 nM.

Broadly, the GI50 is the concentration that inhibits growth by half. A high value points to lower sensitivity of the cells. Broadly, the IC50 is the concentration at which inhibition is half-maximal.

These data come from patent US20230115350A1 (Cedilla Therapeutics, Inc., priority 2021, published 2023).
